From US7868135B2, “Compositions of lipopeptide antibiotic derivatives and methods of use thereof” (priority 2003, dated 2011) come the findings set out here.

Starred links: 1 amine or outer side, 2 acyl side, 3 side chain; linkers in the order of their positions; H or OH if unused. Positions of bridges follow the written chain, without caps; N, C: chain ends. Non-standard residues stand in square brackets, D forms with d. Residues, ends and D or L forms follow the SMILES beside them. Groups on a side chain read outwards from the residue. ξ: configuration not given here. *: point of attachment. X33 = CCCCCCCCCCCC(=O)Nc1cc(NC(=O)CCCCCCCCCCC)cc(C(=O)*)c1; X28 = CCCCCCCC(=O)Nc1cc(NC(=O)CCCCCCC)cc(C(=O)*)c1; X34 = CCCCCC(=O)Nc1cc(NC(=O)CCCCC)cc(C(=O)*)c1; ξAbu(βξ-NH2) = CC(N[*:3])C(N[*:1])C(=O)[*:2]; Phac(3-amino) = O=C(Cc1cccc(N[*:1])c1)[*:2]; Benzoyl(3-OPh) = O=C(c1cccc(Oc2ccccc2)c1)*; Benzoyl(4-tBu) = CC(C)(C)c1ccc(C(=O)*)cc1; NH(2-CF3-phenyl) = FC(F)(F)c1ccccc1N*; Pentadecanoyl = CCCCCCCCCCCCCCC(=O)*; ξAsp(βξ-Me) = CC(C(=O)O)C(N)C(=O)O; Tridecanoyl = CCCCCCCCCCCCC(=O)*; X1 = O=C(Cc1ccc(N[*:1])cc1)[*:2]; X5 = CCCCCCCCCCCCn1cc(C(=O)*)nn1; NHtetradecyl = CCCCCCCCCCCCCCN*; ξAbu(3ξ-NH2) = CC(N)C(N)C(=O)O; Undecanoyl = CCCCCCCCCCC(=O)*; X9 = O=C(c1ccccc1Cc1ccccc1)*; Pip = O=C(O)[CH]1CCCCN1; ξD = NC(CC(=O)O)C(=O)O; ξPip = O=C(O)C1CCCCN1; CO = O=C([*:1])[*:2]; ξV = CC(C)C(N)C(=O)O; ξP = O=C(O)C1CCCN1; OtBu = CC(C)(C)O*

The subject of the assay is Staphylococcus aureus (MSSA). The note with it: 24 h. Put shortly:
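Broth microdilution MIC per NCCLS M7-A6 with doubling serial dilutions, in cation-adjusted Mueller-Hinton broth supplemented with 0.625 mM calcium.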
With `CCCCCCCC(=O)Nc1cc(NC(=O)CCCCCCC)cc(C(=O)NC(CC(=O)O)C(=O)NC2C(=O)N3CCCCC3C(=O)NC(C(C)C(=O)O)C(=O)NC(CC(=O)O)C(=O)NCC(=O)NC(CC(=O)O)C(=O)NCC(=O)NC(C(C)N)C(=O)NC(C(C)C)C(=O)N3CCCC3C(=O)NC2C)c1` (stereo not drawn) [Compound 305, N,N′-di-C8-(M,M-Diaminobenzoyl)-Amphomycin] (X28-D[ξAbu(βξ-NH2)][Pip][ξAsp(βξ-Me)]DGDG[ξAbu(3ξ-NH2)]VP; lactam 2-C; configuration not given here), the MIC was 1 mg/L. With `CCCCCCCCCCCCCCNC(=O)NCC(=O)NC(CC(=O)O)C(=O)NC1C(=O)N2CCCCC2C(=O)NC(C(C)C(=O)O)C(=O)NC(CC(=O)O)C(=O)NCC(=O)NC(CC(=O)O)C(=O)NCC(=O)NC(C(C)N)C(=O)NC(C(C)C)C(=O)N2CCCC2C(=O)NC1C` (stereo not drawn) [Compound 307, CH3—(CH2)13—NH—C(═O)-Gly-Amphomycin] ({NHtetradecyl-CO}-GD[ξAbu(βξ-NH2)][Pip][ξAsp(βξ-Me)]DGDG[ξAbu(3ξ-NH2)]VP; lactam 3-C; configuration not given here), the MIC was 0.5 mg/L. The result for `CCCCCCCCCCCCn1cc(C(=O)NC(CC(=O)O)C(=O)NC2C(=O)N3CCCCC3C(=O)NC(C(C)C(=O)O)C(=O)NC(CC(=O)O)C(=O)NCC(=O)NC(CC(=O)O)C(=O)NCC(=O)NC(C(C)N)C(=O)NC(C(C)C)C(=O)N3CCCC3C(=O)NC2C)nn1` (stereo not drawn) [Compound 309, 1-Dodecyl-1H-(1,2,3)-Triazole-4-Carboxyl-Amphomycin] (X5-D[ξAbu(βξ-NH2)][Pip][ξAsp(βξ-Me)]DGDG[ξAbu(3ξ-NH2)]VP; lactam 2-C; configuration not given here) reads 1 mg/L; that for `CCCCCCCCCCCCCCC(=O)Nc1cccc(CC(=O)NC(CC(=O)O)C(=O)NC2C(=O)N3CCCCC3C(=O)NC(C(C)C(=O)O)C(=O)NC(CC(=O)O)C(=O)NCC(=O)NC(CC(=O)O)C(=O)NCC(=O)NC(C(C)N)C(=O)NC(C(C)C)C(=O)N3CCCC3C(=O)NC2C)c1` (stereo not drawn) [Compound 310, C15-(M-Apa)-Amphomycin] (Pentadecanoyl-[Phac(3-amino)]D[ξAbu(βξ-NH2)][Pip][ξAsp(βξ-Me)]DGDG[ξAbu(3ξ-NH2)]VP; lactam 3-C; configuration not given here), 1 mg/L; that for `CCCCCCCCCCCCC(=O)N[C@@H](CC(=O)OC)C(=O)NC(CC(=O)O)C(=O)NC1C(=O)N2CCCCC2C(=O)NC(C(C)C(=O)O)C(=O)NC(CC(=O)O)C(=O)NCC(=O)NC(CC(=O)O)C(=O)NCC(=O)NC(C(C)N)C(=O)NC(C(C)C)C(=O)N2CCCC2C(=O)NC1C` (stereo partly drawn) [Compound 311, C13-(Asp-(OMe))-Amphomycin] (Tridecanoyl-D(OMe)[ξD][ξAbu(βξ-NH2)][ξPip][ξAsp(βξ-Me)][ξD]G[ξD]G[ξAbu(3ξ-NH2)][ξV][ξP]; lactam 3-C), 8 mg/L. The result for `CCCCCCCCCCCCCCC(=O)Nc1ccc(CC(=O)NC(CC(=O)O)C(=O)NC2C(=O)N3CCCCC3C(=O)NC(C(C)C(=O)O)C(=O)NC(CC(=O)O)C(=O)NCC(=O)NC(CC(=O)O)C(=O)NCC(=O)NC(C(C)N)C(=O)NC(C(C)C)C(=O)N3CCCC3C(=O)NC2C)cc1` (stereo not drawn) [Compound 312, C15-(p-Apa)-Amphomycin] (Pentadecanoyl-[X1]D[ξAbu(βξ-NH2)][Pip][ξAsp(βξ-Me)]DGDG[ξAbu(3ξ-NH2)]VP; lactam 3-C; configuration not given here) reads 1 mg/L; that for `CCCCCCCCCCCCCCC(=O)N[C@@H](CC(=O)OC)C(=O)NC(CC(=O)O)C(=O)NC1C(=O)N2CCCCC2C(=O)NC(C(C)C(=O)O)C(=O)NC(CC(=O)O)C(=O)NCC(=O)NC(CC(=O)O)C(=O)NCC(=O)NC(C(C)N)C(=O)NC(C(C)C)C(=O)N2CCCC2C(=O)NC1C` (stereo partly drawn) [Compound 313, C15-(Asp-(OME))-Amphomycin] (Pentadecanoyl-D(OMe)[ξD][ξAbu(βξ-NH2)][ξPip][ξAsp(βξ-Me)][ξD]G[ξD]G[ξAbu(3ξ-NH2)][ξV][ξP]; lactam 3-C), 0.5 to 1 mg/L. The figure for `CCCCCCCCCCC(=O)N[C@@H](CC(=O)OC(C)(C)C)C(=O)NC(CC(=O)O)C(=O)NC1C(=O)N2CCCCC2C(=O)NC(C(C)C(=O)O)C(=O)NC(CC(=O)O)C(=O)NCC(=O)NC(CC(=O)O)C(=O)NCC(=O)NC(C(C)N)C(=O)NC(C(C)C)C(=O)N2CCCC2C(=O)NC1C` (stereo partly drawn) [Compound 314, C11-(Asp-(OtBu))-Amphomycin] (Undecanoyl-D(OtBu)[ξD][ξAbu(βξ-NH2)][ξPip][ξAsp(βξ-Me)][ξD]G[ξD]G[ξAbu(3ξ-NH2)][ξV][ξP]; lactam 3-C) is 8 mg/L; for `CCCCCCCCCCCCC(=O)N[C@@H](CC(=O)OC(C)(C)C)C(=O)NC(CC(=O)O)C(=O)NC1C(=O)N2CCCCC2C(=O)NC(C(C)C(=O)O)C(=O)NC(CC(=O)O)C(=O)NCC(=O)NC(CC(=O)O)C(=O)NCC(=O)NC(C(C)N)C(=O)NC(C(C)C)C(=O)N2CCCC2C(=O)NC1C` (stereo partly drawn) [Compound 315, C13-(Asp-(OtBu))-Amphomycin] (Tridecanoyl-D(OtBu)[ξD][ξAbu(βξ-NH2)][ξPip][ξAsp(βξ-Me)][ξD]G[ξD]G[ξAbu(3ξ-NH2)][ξV][ξP]; lactam 3-C) it is 1 mg/L. Consider `CCCCCCCCCCC(=O)N[C@@H](CC(=O)OC)C(=O)NC(CC(=O)O)C(=O)NC1C(=O)N2CCCCC2C(=O)NC(C(C)C(=O)O)C(=O)NC(CC(=O)O)C(=O)NCC(=O)NC(CC(=O)O)C(=O)NCC(=O)NC(C(C)N)C(=O)NC(C(C)C)C(=O)N2CCCC2C(=O)NC1C` (stereo partly drawn) [Compound 316, C11-(Asp-(OMe))-Amphomycin] (Undecanoyl-D(OMe)[ξD][ξAbu(βξ-NH2)][ξPip][ξAsp(βξ-Me)][ξD]G[ξD]G[ξAbu(3ξ-NH2)][ξV][ξP]; lactam 3-C), for which the MIC is more than 64 mg/L. The figure for `CCCCCCCCCCCCCCC(=O)N[C@H](CC(=O)OC)C(=O)NC(CC(=O)O)C(=O)NC1C(=O)N2CCCCC2C(=O)NC(C(C)C(=O)O)C(=O)NC(CC(=O)O)C(=O)NCC(=O)NC(CC(=O)O)C(=O)NCC(=O)NC(C(C)N)C(=O)NC(C(C)C)C(=O)N2CCCC2C(=O)NC1C` (stereo partly drawn) [Compound 317, C15-(Asp-(Ome))-Amphomycin] (Pentadecanoyl-[dD](OMe)[ξD][ξAbu(βξ-NH2)][ξPip][ξAsp(βξ-Me)][ξD]G[ξD]G[ξAbu(3ξ-NH2)][ξV][ξP]; lactam 3-C) is 1 mg/L; for `CCCCCCCCCCCCCCC(=O)NC(CC(=O)O)C(=O)NC1C(=O)N2CCCCC2C(=O)NC(C(C)C(=O)O)C(=O)NC(CC(=O)O)C(=O)NCC(=O)NC(CC(=O)O)C(=O)NCC(=O)NC(C(C)NC(=O)Nc2ccccc2C(F)(F)F)C(=O)NC(C(C)C)C(=O)N2CCCC2C(=O)NC1C` (stereo not drawn) [Compound 318, C15-Amphomycin-9-C(═O)—NH—(O—CF3-Phenyl)] (Pentadecanoyl-D[ξAbu(βξ-NH2)][Pip][ξAsp(βξ-Me)]DGDG[ξAbu(βξ-NH2)]([CO-NH(2-CF3-phenyl)])VP; lactam 2-C; configuration not given here) it is 64 mg/L. The figure for `CCCCCC(=O)Nc1cc(NC(=O)CCCCC)cc(C(=O)NC(CC(=O)O)C(=O)NC2C(=O)N3CCCCC3C(=O)NC(C(C)C(=O)O)C(=O)NC(CC(=O)O)C(=O)NCC(=O)NC(CC(=O)O)C(=O)NCC(=O)NC(C(C)N)C(=O)NC(C(C)C)C(=O)N3CCCC3C(=O)NC2C)c1` (stereo not drawn) [Compound 319, N,N′-di-C6-(M,M-Diaminobenzoyl)-Amphomycin] (X34-D[ξAbu(βξ-NH2)][Pip][ξAsp(βξ-Me)]DGDG[ξAbu(3ξ-NH2)]VP; lactam 2-C; configuration not given here) is 64 mg/L; for `CCCCCCCCCCCC(=O)Nc1cc(NC(=O)CCCCCCCCCCC)cc(C(=O)NC(CC(=O)O)C(=O)NC2C(=O)N3CCCCC3C(=O)NC(C(C)C(=O)O)C(=O)NC(CC(=O)O)C(=O)NCC(=O)NC(CC(=O)O)C(=O)NCC(=O)NC(C(C)N)C(=O)NC(C(C)C)C(=O)N3CCCC3C(=O)NC2C)c1` (stereo not drawn) [Compound 320, N,N′-di-C12-(M,M-Diaminobenzoyl)-Amphomycin] (X33-D[ξAbu(βξ-NH2)][Pip][ξAsp(βξ-Me)]DGDG[ξAbu(3ξ-NH2)]VP; lactam 2-C; configuration not given here) it is 2 mg/L.

As to `CCCCCCCCNC(=O)NCCC(=O)NC(CC(=O)O)C(=O)NC1C(=O)N2CCCCC2C(=O)NC(C(C)C(=O)O)C(=O)NC(CC(=O)O)C(=O)NCC(=O)NC(CC(=O)O)C(=O)NCC(=O)NC(C(C)N)C(=O)NC(C(C)C)C(=O)N2CCCC2C(=O)NC1C` (stereo not drawn) [Compound 321, CH3—(CH2)7—NH—C(═O)-(β-Ala)-Amphomycin], the MIC is more than 64 mg/L.

In the case of `CC(C)C1NC(=O)C(C(C)N)NC(=O)CNC(=O)C(CC(=O)O)NC(=O)CNC(=O)C(CC(=O)O)NC(=O)C(C(C)C(=O)O)NC(=O)C2CCCCN2C(=O)C(NC(=O)C(CC(=O)O)NC(=O)c2ccccc2Cc2ccccc2)C(C)NC(=O)C2CCCN2C1=O` (stereo not drawn) [Compound 323, (2-(Phenylmethyl)-Benzoyl)-Amphomycin] (X9-D[ξAbu(βξ-NH2)][Pip][ξAsp(βξ-Me)]DGDG[ξAbu(3ξ-NH2)]VP; lactam 2-C; configuration not given here), the MIC is more than 64 mg/L. The result for `CC(C)C1NC(=O)C(C(C)N)NC(=O)CNC(=O)C(CC(=O)O)NC(=O)CNC(=O)C(CC(=O)O)NC(=O)C(C(C)C(=O)O)NC(=O)C2CCCCN2C(=O)C(NC(=O)C(CC(=O)O)NC(=O)c2ccc(C(C)(C)C)cc2)C(C)NC(=O)C2CCCN2C1=O` (stereo not drawn) [Compound 326, (4-Tbutylbenzoyl)-Amphomycin] ({Benzoyl(4-tBu)}-D[ξAbu(βξ-NH2)][Pip][ξAsp(βξ-Me)]DGDG[ξAbu(3ξ-NH2)]VP; lactam 2-C; configuration not given here) reads more than 64 mg/L; that for `CC(C)C1NC(=O)C(C(C)N)NC(=O)CNC(=O)C(CC(=O)O)NC(=O)CNC(=O)C(CC(=O)O)NC(=O)C(C(C)C(=O)O)NC(=O)C2CCCCN2C(=O)C(NC(=O)C(CC(=O)O)NC(=O)c2cccc(Oc3ccccc3)c2)C(C)NC(=O)C2CCCN2C1=O` (stereo not drawn) [Compound 327, (3-(Phenoxy)-Benzoyl)-Amphomycin] ({Benzoyl(3-OPh)}-D[ξAbu(βξ-NH2)][Pip][ξAsp(βξ-Me)]DGDG[ξAbu(3ξ-NH2)]VP; lactam 2-C; configuration not given here), more than 64 mg/L.
